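1) Cells in 96-well plates. 2) Compound, 48 h, 5 concentrations. 3) Linear interpolation between surrounding doses. 4) Unreached endpoint = highest concentration. Abbreviation: GI50, concentration required for 50% inhibition of growth. At the TGI there is no net growth.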
Experiments:
Assay in all cases: DTP human tumour cell line panel, 48 h
[1] = tested on: 786-0 renal
[2] = tested on: A498 renal
[3] = tested on: A549 NSCLC
[4] = tested on: ACHN renal
[5] = tested on: BT-549 breast
[6] = tested on: CAKI-1 renal
[7] = tested on: CCRF-CEM leukemia
[8] = tested on: COLO 205 colon
[9] = tested on: DU-145 prostate
[10] = tested on: EKVX NSCLC
[11] = tested on: HCC-2998 colon
[12] = tested on: HCT-116 colon
[13] = tested on: HCT-15 colon
[14] = tested on: HL-60(TB) leukemia
[15] = tested on: HOP-62 NSCLC
[16] = tested on: HS 578T breast
[17] = tested on: HT29 colon
[18] = tested on: IGROV1 ovarian
[19] = tested on: K-562 leukemia
[20] = tested on: KM12 colon
[21] = tested on: LOX IMVI melanoma
[22] = tested on: M14 melanoma
[23] = tested on: MALME-3M melanoma
[24] = tested on: MDA-MB-231 breast
[25] = tested on: MDA-MB-435
[26] = tested on: NCI-H226 lung
[27] = tested on: NCI-H23 lung
[28] = tested on: NCI-H522 lung
[29] = tested on: NCI/ADR-RES ovarian
[30] = tested on: OVCAR-3 ovarian
[31] = tested on: OVCAR-4 ovarian
[32] = tested on: OVCAR-5 ovarian
[33] = tested on: OVCAR-8 ovarian
[34] = tested on: PC-3 prostate
[35] = tested on: RPMI-8226 leukemia
[36] = tested on: RXF 393 renal
[37] = tested on: SF-295 CNS
[38] = tested on: SF-539 CNS
[39] = tested on: SK-MEL-2 melanoma
[40] = tested on: SK-MEL-28 melanoma
[41] = tested on: SK-MEL-5 melanoma
[42] = tested on: SK-OV-3 ovarian
[43] = tested on: SN12C renal
[44] = tested on: SNB-75 CNS
[45] = tested on: SR leukemia
[46] = tested on: SW-620 colon
[47] = tested on: T-47D breast
[48] = tested on: TK-10 renal
[49] = tested on: U251 CNS
[50] = tested on: UACC-257 melanoma
[51] = tested on: UACC-62 melanoma
[52] = tested on: UO-31 renal

For `CO/N=C(\COc1ccc2c(=O)cc(-c3ccccc3)oc2c1)c1ccc(F)cc1`, the GI50 [1] was 20.7 µM, the TGI [1] was 49.8 µM and the GI50 [2] was over 100 µM. The TGI [2] was over 100 µM, the GI50 [3] was 30.6 µM and the TGI [3] was over 100 µM. It also gave a GI50 [4] of 34 µM, a TGI [4] of over 100 µM and a GI50 [5] of over 100 µM. For the same compound, the TGI [5] was over 100 µM, the GI50 [6] was 22.7 µM and the TGI [6] was 65.6 µM. For the same compound, the GI50 [7] was over 100 µM, the TGI [7] was over 100 µM and the GI50 [8] was over 100 µM. For the same compound, the TGI [8] was over 100 µM, the GI50 [9] was 76.1 µM and the TGI [9] was over 100 µM. For the same compound, the GI50 [10] was 74.4 µM, the TGI [10] was over 100 µM and the GI50 [11] was 32.3 µM. It also gave a TGI [11] of 96 µM, a GI50 [12] of 28.4 µM and a TGI [12] of over 100 µM. For the same compound, the GI50 [13] was 63.9 µM, the TGI [13] was over 100 µM and the GI50 [14] was 21 µM. It also gave a TGI [14] of over 100 µM, a GI50 [15] of 21 µM and a TGI [15] of 50.5 µM. It also gave a GI50 [16] of 51.5 µM, a TGI [16] of over 100 µM and a GI50 [17] of 33.6 µM. It also gave a TGI [17] of over 100 µM, a GI50 [18] of 21.9 µM and a TGI [18] of 66.6 µM. The GI50 [19] was 36.5 µM, the TGI [19] was over 100 µM and the GI50 [20] was 53.8 µM. The TGI [20] was over 100 µM, the GI50 [21] was 67.5 µM and the TGI [21] was over 100 µM. It also gave a GI50 [22] of 36.1 µM, a TGI [22] of over 100 µM and a GI50 [23] of 19.3 µM. The TGI [23] was 45.9 µM, the GI50 [24] was 27.7 µM and the TGI [24] was 64 µM. The GI50 [25] was 10.3 µM, the TGI [25] was 37.1 µM and the GI50 [26] was over 100 µM. The TGI [26] was over 100 µM, the GI50 [27] was 92.7 µM and the TGI [27] was over 100 µM. The GI50 [28] was 23.1 µM, the TGI [28] was 62.3 µM and the GI50 [29] was 34.4 µM. For the same compound, the TGI [29] was over 100 µM, the GI50 [30] was 14 µM and the TGI [30] was 47.7 µM. For the same compound, the GI50 [31] was 58.2 µM, the TGI [31] was over 100 µM and the GI50 [32] was 42.1 µM. The TGI [32] was over 100 µM, the GI50 [33] was 40.7 µM and the TGI [33] was over 100 µM. For the same compound, the GI50 [34] was 37.9 µM, the TGI [34] was over 100 µM and the GI50 [35] was over 100 µM. The TGI [35] was over 100 µM, the GI50 [36] was 27.7 µM and the TGI [36] was 87.5 µM. The GI50 [37] was 25.8 µM, the TGI [37] was 56.9 µM and the GI50 [38] was 94.8 µM. For the same compound, the TGI [38] was over 100 µM, the GI50 [39] was 24 µM and the TGI [39] was 60.4 µM. For the same compound, the GI50 [40] was 89.4 µM, the TGI [40] was over 100 µM and the GI50 [41] was 35.1 µM. For the same compound, the TGI [41] was over 100 µM, the GI50 [42] was 41.4 µM and the TGI [42] was over 100 µM. It also gave a GI50 [43] of 36.2 µM, a TGI [43] of over 100 µM and a GI50 [44] of 24.1 µM. For the same compound, the TGI [44] was 55 µM, the GI50 [45] was 14.5 µM and the TGI [45] was 47.2 µM. For the same compound, the GI50 [46] was 42.6 µM, the TGI [46] was over 100 µM and the GI50 [47] was 68.4 µM. It also gave a TGI [47] of over 100 µM, a GI50 [48] of 41.7 µM and a TGI [48] of over 100 µM. The GI50 [49] was 29.2 µM, the TGI [49] was 88.5 µM and the GI50 [50] was 32.1 µM. It also gave a TGI [50] of over 100 µM, a GI50 [51] of 29.8 µM and a TGI [51] of over 100 µM. It also gave a GI50 [52] of over 100 µM and a TGI [52] of over 100 µM.
